{
  "source": "patent US20240174675A1",
  "about": "“SMALL MOLECULE REGULATORS OF ALVEOLAR TYPE 2 CELL PROLIFERATION FOR THE TREATMENT OF PULMONARY DISEASES” (THE SCRIPPS RESEARCH INSTITUTE, priority 2021, published 2024)",
  "key": {"AEC2s": {"system": "AEC2s", "experiment": "Single cell RNA-sequencing from the lungs of mice (proliferating cell types)", "format": "in vivo", "settings": "mouse lung, 0.5 mg/kg IT; for cell types proliferative in response to treatment: animals sacrificed 2 and 4 days after dosing (FIG. 5)", "protocol": "Single cell RNA-sequencing from the lungs of mice was performed to understand which cell types are proliferative in response to compound 46 treatment."}, "Human DPP4": {"target": "T1, Human DPP4 (Homo sapiens, UniProt P27487)", "T1 construct": "purchased Sigma-Aldrich MAK088", "T1 sequence (P27487 whole entry)": "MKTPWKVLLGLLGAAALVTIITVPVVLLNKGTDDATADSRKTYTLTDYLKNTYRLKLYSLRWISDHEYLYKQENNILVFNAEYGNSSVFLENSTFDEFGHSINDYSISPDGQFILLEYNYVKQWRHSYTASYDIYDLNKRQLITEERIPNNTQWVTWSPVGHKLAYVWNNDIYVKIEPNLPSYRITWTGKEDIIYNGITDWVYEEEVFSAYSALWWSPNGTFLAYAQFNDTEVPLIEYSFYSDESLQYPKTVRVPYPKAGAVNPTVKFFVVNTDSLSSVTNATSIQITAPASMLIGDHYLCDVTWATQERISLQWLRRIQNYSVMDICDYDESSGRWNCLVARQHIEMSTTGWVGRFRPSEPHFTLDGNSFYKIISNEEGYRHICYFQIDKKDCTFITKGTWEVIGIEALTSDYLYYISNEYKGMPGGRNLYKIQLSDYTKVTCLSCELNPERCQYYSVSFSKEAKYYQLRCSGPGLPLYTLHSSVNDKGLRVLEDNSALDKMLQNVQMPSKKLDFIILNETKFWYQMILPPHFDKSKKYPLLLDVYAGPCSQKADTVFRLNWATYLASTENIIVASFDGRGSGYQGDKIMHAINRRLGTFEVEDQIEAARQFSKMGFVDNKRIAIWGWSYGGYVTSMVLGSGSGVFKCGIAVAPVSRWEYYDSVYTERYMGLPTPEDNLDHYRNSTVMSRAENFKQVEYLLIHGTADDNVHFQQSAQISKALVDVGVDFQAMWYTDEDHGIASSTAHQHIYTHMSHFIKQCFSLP", "experiment": "DPP4 activity assay (DPP4 Activity Assay Kit, fluorescent substrate)", "format": "biochemical", "settings": "Human DPP4; read-out: DPP4 inhibition IC50 [nM])", "in_short": "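Human DPP4 activity measured with a commercial kit: test compound in assay buffer mixed with a fluorogenic substrate cleaved by the enzyme. Fluorescence read every 1 minute over 20 minutes.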"}, "[1]": {"system": "LPS induced acute lung injury in mice", "experiment": "LPS-induced acute lung injury (ALI) model", "format": "in vivo, C57BL/6J mice", "settings": "mouse ALI model; every other day via intratracheal administration", "protocol": "LPS from E. coli […] (Sigma) was used to induce acute lung injury in mice. Body weight matched (19 gram-22 gram) female C57BL/6J mice at 9-11 weeks of age were selected to use in ALI model.\nFor oral delivery, DPP4 inhibitors were dissolved in PBS resulting in clear solution. Vehicle control or DPP4 inhibitors were dosed at 10 ml/kg through oral gavage once or twice a day selected based on PK profile. For intratracheally delivered DPP4 inhibitors, compounds were dissolved in PBS resulting in clear solution. Vehicle control or DPP4 inhibitors were dosed at 2 ml/kg through a 22 g flexible catheter every other day.\nLPS (1.5 mg/kg for testing orally delivered DPP4 inhibitors and 1.2 mg/kg for testing intratracheally delivered DPP4 inhibitors) or PBS in sham group was intratracheally injection into mice lung at day 0. DPP4 inhibitors or vehicle control were given to mice starting from one day before LPS injection (day −1).\nAll animals were sacrificed at day 3.5 after LPS injection. Bronchoalveolar lavage fluid (BALF) was retrieved using standard method. 1 ml 4% formalin was used to inflate the lung, which was subsequently fixed in 4% formalin for 24 hours and preserved in 70% EtOH until histological process.\nFor readouts, total protein content in BALF was quantified using BCA assay; pulmonary inflammation and damage were assessed using H & E staining."}, "[2]": {"experiment": "Pharmacokinetic profiling, plasma and lung levels after intratracheal or inhalation delivery in the mouse", "format": "in vivo", "settings": "for Kp: read-out: AUC ratio; for AUC(0-t): read-out: AUC0-24; for MRT inf: read-out: MRT0-inf"}, "[3]": {"system": "bleomycin induced lung fibrosis in mice", "experiment": "Bleomycin induced lung fibrosis model", "format": "in vivo, C57BL/6J mice", "settings": "for efficacy in combination with Nintedanib: Compound 46 0.5 mg/kg IT, E4D, Bliss independence, BALF protein content and Ashcroft scoring (FIG. 4)", "protocol": "Bleomycin (Hospira) was used to induce lung fibrosis in mice. Body weight matched (24 gram˜28 gram) male C57BL/6J mice at 10-12 weeks of age were selected to use in bleomycin model.\nFor oral delivery, DPP4 inhibitors were dissolved in PBS resulting in clear solution. Vehicle control or DPP4 inhibitors were dosed at 10 ml/kg through oral gavage once or twice a day selected based on PK profile. For intratracheally delivered DPP4 inhibitors, compounds were dissolved in PBS resulting in clear solution. Vehicle control or DPP4 inhibitors were dosed at 2 ml/kg through a 22 g flexible catheter every four days.\n0.5 U/kg Bleomycin or PBS in sham group was intratracheally injected into mice lung at day 0. DPP4 inhibitors or vehicle control were given to mice starting from one day before bleomycin injection (day −1).\nAll animals were sacrificed at day 20 after bleomycin injection. Bronchoalveolar lavage fluid (BALF) was retrieved using standard method. 1 ml 4% formalin was used to inflate the lung, which was subsequently fixed in 4% formalin for 24 hours and preserved in […] until histological process.\nFor readouts, body weight was measured every day; total protein content in BALF was quantified using BCA assay; pulmonary fibrosis was assessed using Masson's trichrome staining."}, "[4]": {"experiment": "Pharmacokinetic profiling, plasma and lung levels after intratracheal delivery in the rat", "format": "in vivo", "settings": "Male, Sprague Dawley strain, 2 mg/kg, 1 mg/ml in PBS; for MRT inf: read-out: MRT0-inf", "protocol": "To assess the time course of the plasma and lung exposure of compounds disclosed herein, rodents were dosed IT with an exemplary compound of the present disclosure. The plasma and lung samples were taken at different time points. The drug levels were measured by LCMS."}, "[5]": {"settings": "Mouse, Male, CD-1 strain, Intratracheal, 2 mg/kg, 1 mg/ml in PBS, Lung"}, "[6]": {"settings": "Mouse, Male, CD-1 strain, Intratracheal, 2 mg/kg, 1 mg/ml in PBS, Plasma"}, "[7]": {"settings": "inhaled or intranasal, Mouse, Male, CD-1 strain, Inhalation, 10 mg/ml in PBS for 15 mins, Lung"}, "[8]": {"settings": "inhaled or intranasal, Mouse, Male, CD-1 strain, Inhalation, 10 mg/ml in PBS for 15 mins, Plasma"}, "[9]": {"settings": "inhaled or intranasal, Mouse, Male, CD-1 strain, Intratracheal, 2 mg/kg, 1 mg/ml in PBS, Lung"}, "[10]": {"settings": "inhaled or intranasal, Mouse, Male, CD-1 strain, Intratracheal, 2 mg/kg, 1 mg/ml in PBS, Plasma"}, "[11]": {"settings": "mouse, IT dosing at 2 mg/kg (FIG. 2)"}},
  "note": "Entries after “also recorded” stand apart in the source; their conditions may differ.",
  "data": [
    {"compound": "CCCCCCN(Cc1cn(CCOCCOCCOC(=O)c2nc(C(F)(F)F)n3c2CN(C(=O)C[C@H](N)Cc2cc(F)c(F)cc2F)CC3)nn1)C[C@H](O)[C@@H](O)[C@H](O)[C@H](O)CO", "note": "[Compound 46, 2-(2-(2-(4-((hexyl(2,3,4,5,6-pentahydroxyhexyl)amino)methyl)-1H-1,2,3-triazol-1-yl)ethoxy)ethoxy)ethyl 7-((R)-3-amino-4-(2,4,5-trifluorophenyl)butanoyl)-3-(trifluoromethyl)-5,6,7,8-tetrahydroimidazo[1,5-a]pyrazine-1-carboxylate]", "values": [
      {"measurement": "accumulation of AEC2s after treatment", "setting": "AEC2s; 2 and 4 days after dosing", "value": "time-dependent accumulation of AEC2s"},
      {"measurement": "cell types proliferative in response to treatment", "setting": "AEC2s; listed as Compound 46, 0.5 mg/kg", "value": "selectively expanded AEC2s"},
      {"measurement": "cell types proliferative in response to treatment", "setting": "AEC2s; listed as compound 46, 0.5 mg/kg", "value": "only cycling and transitional AEC2s were induced to proliferate"},
      {"measurement": "IC50", "setting": "Human DPP4", "value": 0.15, "unit": "nM"},
      {"measurement": "minimal efficacious dose", "setting": "[1]", "value": 0.02, "unit": "mg/kg"},
      {"measurement": "AUC0-inf", "setting": "[2]; Mouse, Male, CD-1 strain, Inhalation, 10 mg/ml in PBS for 15 mins, Lung", "value": "509,951 ng · h/g"},
      {"measurement": "AUC ratio", "setting": "[2]; Mouse, Male, CD-1 strain, Inhalation, 10 mg/ml in PBS for 15 mins, Plasma", "value": 1},
      {"measurement": "AUC0-24", "setting": "[2]; [5]", "value": "258,902 ng · h/g"},
      {"measurement": "AUC0-inf", "setting": "[2]; [5]", "value": "1,082,408 ng · h/g"},
      {"measurement": "Tmax", "setting": "[2]; [5]", "value": 0.25, "unit": "h"},
      {"measurement": "Kp", "setting": "[2]; [5]", "value": 1350},
      {"measurement": "AUC ratio", "setting": "[2]; [6]", "value": 1},
      {"measurement": "AUC(0-t)", "setting": "[2]; [6]", "value": 728, "unit": "ng·h/mL"},
      {"measurement": "AUC0-inf", "setting": "[2]; Mouse, Male, CD-1 strain, Intratracheal, 2 mg/kg, 1 mg/ml in PBS, Plasma, read-out: AUC0-inf", "value": 729, "unit": "ng·h/mL"},
      {"measurement": "MRT inf", "setting": "[2]; [6]", "value": 1.88, "unit": "h"},
      {"measurement": "Cmax", "setting": "[2]; [7]", "value": 20900, "unit": "ng/g"},
      {"measurement": "Tmax", "setting": "[2]; [7]", "value": 0.25, "unit": "h"},
      {"measurement": "Kp", "setting": "[2]; [7]", "value": 9240},
      {"measurement": "Cmax", "setting": "[2]; [8]", "value": 35.9, "unit": "ng/mL"},
      {"measurement": "Tmax", "setting": "[2]; [8]", "value": 0.5, "unit": "h"},
      {"measurement": "half-life", "setting": "[2]; [8]", "value": 1.5, "unit": "h"},
      {"measurement": "AUC(0-t)", "setting": "[2]; [8]", "value": 53.4, "unit": "ng·h/mL"},
      {"measurement": "AUC0-inf", "setting": "[2]; inhaled or intranasal, Mouse, Male, CD-1 strain, Inhalation, 10 mg/ml in PBS for 15 mins, Plasma, read-out: AUC0-inf", "value": 55.2, "unit": "ng·h/mL"},
      {"measurement": "MRT inf", "setting": "[2]; [8]", "value": 1.69, "unit": "h"},
      {"measurement": "Cmax", "setting": "[2]; [9]", "value": 24600, "unit": "ng/g"},
      {"measurement": "half-life", "setting": "[2]; [9]", "value": 54.1, "unit": "h"},
      {"measurement": "MRT inf", "setting": "[2]; [9]", "value": 80.6, "unit": "h"},
      {"measurement": "Cmax", "setting": "[2]; [10]", "value": 435, "unit": "ng/mL"},
      {"measurement": "Tmax", "setting": "[2]; [10]", "value": 0.25, "unit": "h"},
      {"measurement": "half-life", "setting": "[2]; [10]", "value": 1.28, "unit": "h"},
      {"measurement": "plasma and lung exposure profiles compared to retagliptin", "setting": "[2]; [11]", "value": "significantly higher plasma and lung exposure profiles compared to retagliptin"},
      {"measurement": "time retained in the lung", "setting": "[2]; [11]", "value": 7, "unit": "days"},
      {"measurement": "efficacy in combination with Nintedanib", "setting": "[3]; bleomycin model, listed as Compound 46, 0.5 mg/kg", "value": "synergistic efficacy"},
      {"measurement": "efficacy in combination with Nintedanib", "setting": "[3]; bleomycin model, listed as compound 46, 0.5 mg/kg", "value": "impressive and synergistic efficacy"},
      {"measurement": "minimal efficacious dose", "setting": "[3]; bleomycin model, every four-day intratracheal dosing regime", "value": 0.5, "unit": "mg/kg"},
      {"measurement": "efficacy in the bleomycin induced pulmonary fibrosis model", "setting": "[3]; mouse, intratracheally 0.5 mg/kg every four days, body weight, BALF protein, fibrotic area, modified Ashcroft scores (FIG. 3)", "value": "displayed efficacy; also recorded: rescue of key metrics including body weight, BALF protein content, fibrotic area, and histological scoring"},
      {"measurement": "AUC0-24", "setting": "[4]; Lung", "value": 658004, "unit": "ng·h/g"},
      {"measurement": "AUC0-inf", "setting": "[4]; Lung", "value": 4738852, "unit": "ng·h/g"},
      {"measurement": "AUC ratio", "setting": "[4]; Plasma", "value": 1},
      {"measurement": "Cmax", "setting": "[4]; inhaled or intranasal, Lung", "value": 41400, "unit": "ng/g"},
      {"measurement": "Tmax", "setting": "[4]; inhaled or intranasal, Lung", "value": 0.25, "unit": "h"},
      {"measurement": "half-life", "setting": "[4]; inhaled or intranasal, Lung", "value": 119, "unit": "h"},
      {"measurement": "Kp", "setting": "[4]; inhaled or intranasal, Lung, read-out: AUC ratio", "value": 145},
      {"measurement": "MRT inf", "setting": "[4]; inhaled or intranasal, Lung", "value": 186, "unit": "h"},
      {"measurement": "Cmax", "setting": "[4]; inhaled or intranasal, Plasma", "value": 14700, "unit": "ng/mL"},
      {"measurement": "Tmax", "setting": "[4]; inhaled or intranasal, Plasma", "value": 0.25, "unit": "h"},
      {"measurement": "half-life", "setting": "[4]; inhaled or intranasal, Plasma", "value": 68.8, "unit": "h"},
      {"measurement": "AUC(0-t)", "setting": "[4]; inhaled or intranasal, Plasma, read-out: AUC0-24", "value": 18000, "unit": "ng·h/mL"},
      {"measurement": "AUC0-inf", "setting": "[4]; inhaled or intranasal, Plasma, read-out: AUC0-inf", "value": 18600, "unit": "ng·h/mL"},
      {"measurement": "MRT inf", "setting": "[4]; inhaled or intranasal, Plasma", "value": 6, "unit": "h"}
    ]}
  ]
}
